Laboratory results taken from patent publication US10287266B2, “Compounds and compositions for inhibiting the activity of SHP2” (NOVARTIS AG, priority 2015, dated 2019).

target: T1, SHP2 (Homo sapiens, UniProt Q06124); experiment: SHP2 Allosteric Inhibition Assay; format: biochemical; conditions: 0.5 nM SHP2 activated with 0.5 μM peptide IRS1_pY1172(dPEG8)pY1222; surrogate substrate DiFMUP, prompt fluorescence, 25° C.
T1 sequence (Q06124 1-593): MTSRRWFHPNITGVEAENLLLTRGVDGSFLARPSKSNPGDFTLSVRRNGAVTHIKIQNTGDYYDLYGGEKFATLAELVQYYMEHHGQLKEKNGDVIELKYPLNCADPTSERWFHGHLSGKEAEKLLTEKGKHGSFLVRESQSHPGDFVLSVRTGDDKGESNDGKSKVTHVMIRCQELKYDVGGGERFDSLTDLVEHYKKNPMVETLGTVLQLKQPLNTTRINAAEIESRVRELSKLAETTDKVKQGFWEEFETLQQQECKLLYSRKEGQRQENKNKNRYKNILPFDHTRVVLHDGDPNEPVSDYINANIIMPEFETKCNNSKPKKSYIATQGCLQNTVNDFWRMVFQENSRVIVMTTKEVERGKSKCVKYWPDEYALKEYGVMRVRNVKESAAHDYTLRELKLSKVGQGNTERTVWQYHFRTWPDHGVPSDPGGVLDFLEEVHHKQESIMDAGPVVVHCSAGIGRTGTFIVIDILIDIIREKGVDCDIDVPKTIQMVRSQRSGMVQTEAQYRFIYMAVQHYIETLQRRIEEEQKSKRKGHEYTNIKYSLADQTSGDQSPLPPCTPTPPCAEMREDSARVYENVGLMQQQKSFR
Description: SHP2 Allosteric Inhibition Assay
SHP2 is allosterically activated through binding of bis-tyrosyl-phorphorylated peptides to its Src Homology 2 (SH2) domains. The latter activation step leads to the release of the auto-inhibitory interface of SHP2, which in turn renders the SHP2 protein tyrosine phosphatase (PTP) active and available for substrate recognition and reaction catalysis. The catalytic activity of SHP2 was monitored using the surrogate substrate DiFMUP in a prompt fluorescence assay format.
After 30-60 minutes incubation at 25° C., the surrogate substrate DiFMUP (Invitrogen, cat# D6567) was added to the reaction and incubated at 25° C. for 30 minutes. […] The inhibitor dose response curves were analyzed using normalized IC50 regression curve fitting with control based normalization.

Going from `C[C@H]1C[C@@H](N)C2(CCN(c3cnc(Sc4cc(N)nc(Cl)c4Cl)cn3)CC2)C1` [Example 60] to `Nc1cc(Sc2cnc(N3CCC4(CC3)C[C@H](O)C[C@H]4N)cn2)c(Cl)c(Cl)n1` [Example 15], the AC50 falls from 35.1 nM to 6 nM (5.9-fold).

First: Nc1nccc(Sc2cnc(N3CCC4(CC3)C[C@@H](F)C[C@H]4N)cn2)c1Cl [Example 27]
Second: Nc1nccc(Sc2cnc(N3CCC4(CC3)C[C@H](F)C[C@H]4N)cn2)c1Cl [Example 10]
The AC50 of the first is 3.1-fold higher: 12.1 nM for the first, 3.9 nM for the second.

First: CC1(CN)CCN(c2cnc(Sc3ccnc(N)c3Cl)cn2)CC1O (single isomer, unassigned) [Example 52]
Second: CCC1(CN)CCN(c2cnc(Sc3ccnc(N)c3Cl)cn2)CC1 [Example 18]
The AC50 of the first is 96-fold higher: 791 nM for the first, 8.2 nM for the second.

Going from `C[C@@H]1OCC2(CCN(c3cnc(Sc4ccnc(F)c4Cl)cn3)CC2)[C@@H]1N` [Example 111] to `C[C@H]1OCC2(CCN(c3cnc(Sc4ccnc(N)c4Cl)cn3)CC2)[C@@H]1N` [Example 12], the AC50 falls from 44.1 nM to 5.7 nM (7.7-fold).

Compared with `N[C@@H]1CCCC12CCN(c1cnc(Sc3cccnc3C(F)(F)F)cn1)CC2` [Example 35], `N[C@@H]1COCC12CCN(c1cnc(Sc3cccnc3C(F)(F)F)cn1)CC2` [Example 47] is 2.7-fold higher in AC50: 20.8 nM for the first, 56 nM for the second.

Going from `N[C@H]1CCCC12CCN(c1cnc(Sc3ccccc3OC(F)(F)F)cn1)CC2` [Example 126] to `N[C@@H]1CCCC12CCN(c1cnc(Sc3ccccc3OC(F)(F)F)cn1)CC2` [Example 65], the AC50 falls from 130 nM to 30.5 nM (4.3-fold).

Compared with `CCc1ccccc1Sc1cnc(N2CCC3(CCC[C@@H]3N)CC2)cn1` [Example 125], `Cc1ccccc1Sc1cnc(N2CCC3(CCC[C@H]3N)CC2)cn1` [Example 121] is 2.2-fold lower in AC50: 101 nM for the first, 44.9 nM for the second.

First: CCOc1cccc(Sc2cnc(N3CCC4(CCC[C@H]4N)CC3)cn2)c1 [Example 83]
Second: Cc1cccc(Sc2cnc(N3CCC4(CCC[C@H]4N)CC3)cn2)c1 [Example 64]
The AC50 of the first is 1.6-fold higher: 78.1 nM for the first, 48.2 nM for the second.

Compared with `Nc1cccc(Sc2cnc(N3CCC4(CCC[C@H]4N)CC3)cn2)c1` [Example 79], `Cc1cccc(Sc2cnc(N3CCC4(CCC[C@@H]4N)CC3)cn2)c1` [Example 123] is 2.4-fold higher in AC50: 31.4 nM for the first, 75.8 nM for the second.

First: CC1(CN)CCN(c2cnc(Sc3ccc(N)cc3Cl)cn2)CC1 [Example 9, 4-((5-(4-(aminomethyl)-4-methylpiperidin-1-yl)pyrazin-2-yl)thio)-3-chloroaniline]
Second: CC1(CN)CCN(c2cnc(Sc3cccc(N)c3Cl)cn2)CC1 [Example 22]
The AC50 of the first is 3.1-fold higher: 30.6 nM for the first, 10 nM for the second.

First: N[C@@H]1CCCC12CCN(c1cnc(Sc3ccc(F)cc3F)cn1)CC2 [Example 100]
Second: N[C@@H]1CCCC12CCN(c1cnc(Sc3cccc(Cl)c3F)cn1)CC2 [Example 93]
The AC50 of the first is 1.7-fold higher: 151 nM for the first, 89.3 nM for the second.

Compared with `CC(C)(C)c1ccccc1Sc1cnc(N2CCC3(CCC[C@@H]3N)CC2)cn1` [Example 131], `N[C@@H]1CCCC12CCN(c1cnc(Sc3ccccc3Cl)cn1)CC2` [Example 73] is 84-fold lower in AC50: 1460 nM for the first, 17.3 nM for the second.

Going from `COC(=O)C1(CN)CCN(c2cnc(Sc3ccnc(N)c3Cl)cn2)CC1` [Example 44] to `Nc1nccc(Sc2cnc(N3CCC(N)(CO)CC3)cn2)c1Cl` [Example 54], the AC50 rises from 45.7 nM to 381 nM (8.3-fold).

First: CC1(CN)CCN(c2cnc(Sc3ccnc(N)c3Cl)cn2)CC1O (single isomer, unassigned) [Example 40]
Second: CC1CCC2(CCN(c3cnc(Sc4ccnc(N)c4Cl)cn3)CC2)[C@@H]1N (some centres unmarked) [Example 38]
The AC50 of the first is 4.4-fold higher: 108 nM for the first, 24.7 nM for the second.

Going from `N[C@H]1CCCC12CCN(c1cnc(Sc3ccccc3)cn1)CC2` [Example 130] to `N[C@@H]1CCCC12CCN(c1cnc(Sc3ccncc3)cn1)CC2` [Example 89], the AC50 falls from 621 nM to 107 nM (5.8-fold).

Compared with `CC1(CN)CCN(c2cnc(Sc3cc(N)nc(Cl)c3Cl)cn2)CC1` [Example 59], `C[C@@H]1OCC2(CCN(c3cnc(Sc4cc(N)nc(Cl)c4Cl)cn3)CC2)[C@@H]1N` [Example 28] is 11-fold lower in AC50: 155 nM for the first, 14.1 nM for the second.

Going from `CO[C@H]1C[C@@H](N)C2(CCN(c3cnc(Sc4ccnc(N)c4Cl)cn3)CC2)C1` [Example 17] to `Nc1nccc(Sc2cnc(N3CCC4(CC3)C[C@H](O)C[C@H]4N)cn2)c1Cl` [Example 11], the AC50 falls from 6.2 nM to 4.1 nM (1.5-fold).

Compared with `Nc1nccc(Sc2cnc(N3CCC4(CC3)CC(F)(F)C[C@H]4N)cn2)c1Cl` [Example 56], `CC1CCC2(CCN(c3cnc(Sc4ccnc(N)c4Cl)cn3)CC2)[C@@H]1N` (some centres unmarked) [Example 13] is 4-fold lower in AC50: 23.8 nM for the first, 5.9 nM for the second.

First: N[C@@H]1CCCC12CCN(c1cnc(Sc3cccc(C4CC4)c3)cn1)CC2 [Example 84]
Second: N[C@@H]1CCCC12CCN(c1cnc(Sc3cccc(NC(=O)C4CC4)c3)cn1)CC2 [Example 96]
The AC50 of the first is 2.3-fold lower: 33.9 nM for the first, 77.7 nM for the second.

`N[C@@H]1CCCC12CCN(c1cnc(Sc3cccc(CN4CCOCC4)c3)cn1)CC2` [Example 94] and `COc1ccccc1Sc1cnc(N2CCC3(CCC[C@H]3N)CC2)cn1` [Example 69] are within 1.5-fold of each other in AC50: 39 nM for the first, 41.8 nM for the second.

Compared with `CC(C)(C)c1ccc(Sc2cnc(N3CCC4(CCC[C@@H]4N)CC3)cn2)cc1` [Example 132], `N[C@@H]1CCCC12CCN(c1cnc(Sc3ccnc(F)c3Cl)cn1)CC2` [Example 99] is 45-fold lower in AC50: 1960 nM for the first, 43.9 nM for the second.

Compared with `C[C@@H]1OCC2(CCN(c3cnc(Sc4cc[nH]c(=O)c4Cl)cn3)CC2)[C@@H]1N` [Example 109], `N[C@@H]1COCC12CCN(c1cnc(Sc3ccnc(Cl)c3Cl)cn1)CC2` [Example 19] is 3.4-fold lower in AC50: 28.8 nM for the first, 8.5 nM for the second.

First: NCC1(c2ccccn2)CCN(c2cnc(Sc3ccnc(N)c3Cl)cn2)CC1 [Example 45]
Second: CC1(N)CCN(c2cnc(Sc3cccc(N)c3Cl)cn2)CC1 [Example 36]
The AC50 of the first is 2-fold higher: 47.1 nM for the first, 23.6 nM for the second.

First: Nc1cc(Sc2cnc(N3CCC4(CC3)COC[C@H]4N)cn2)c(Cl)c(Cl)n1 [Example 24]
Second: Nc1cc(Sc2cnc(N3CCC4(CCC[C@H]4N)CC3)cn2)c(Cl)c(N)n1 [Example 37]
The AC50 of the first is 2.3-fold lower: 10.4 nM for the first, 24 nM for the second.

First: N#Cc1c(Sc2cnc(N3CCC4(CCC[C@H]4N)CC3)cn2)ccnc1Cl [Example 5, (R)-4-((5-(1-amino-8-azaspiro[4.5]decan-8-yl)pyrazin-2-yl)thio)-2-chloronicotinonitrile]
Second: N[C@@H]1C[C@H](O)CC12CCN(c1cnc(Sc3ccnc(Cl)c3Cl)cn1)CC2 [Example 20]
The AC50 of the first is 7.7-fold higher: 67 nM for the first, 8.7 nM for the second.
